Reference: patent US8420676B2, “Oxazolidinone derivatives” (Dong-A Pharmaceuticals Co. Ltd., priority 2003, dated 2013)
Converted amounts (≈) assume the structure as drawn.

What was measured:
[1] = Assay for solubility in distilled water (turbidity by naked eye); format: physicochemical; conditions: average of three runs; for solubility at 2 min: thermodynamic from solid
Protocol: The derivatives of the present invention were added to 200 μl of distilled water and then the solution was stirred for 2 minutes. The turbidity of the solution was watched through naked eye.
When the derivatives were not dissolved completely, 50 μl of distilled water was added to the solution and then the turbidity of the solution was assayed in the above manner to find a point of becoming transparent solution.
When 2 mg of the derivatives was first added to distilled water and completely dissolved so that the solution became transparent, 2 mg of the derivatives was added more to the solution and then state of the solution was watched. The derivatives of the present invention were added to the five times and then solubility of the solution was assayed for. The assay for solubility was carried out the three times repeatedly in the above method and the results were averaged.

[2] = system: vancomycin resistant Enterococci (VRE); test: Assay for in vitro antibacterial activity, agar dilution (VRE); conditions: Enterococcus, read-out: Minimum Inhibitory Concentration (MIC50) VRE
[3] = system: methicillin resistant Staphylococcus aureus (MRSA); test: Assay for in vitro antibacterial activity, agar dilution (MRSA); conditions: read-out: Minimum Inhibitory Concentration (MIC50) MRSA
ICR mice = test: Test of acute toxicity by oral administration to mouse; format: in vivo; conditions: 1% hydroxypropylmethylcellulose, observed 2 weeks
Protocol: To test acute toxicity of the compounds of the present invention, the following experiment was carried out.
A mixture of 1% hydroxypropylmethylcellulose and 200 mg of one selected from the group consisting of the compounds 10, 12, 16, 17, 20, 22, 24 and 27 was administrated to 5 ICR mice (5-Week old males, 20 g±2 g by weight). And then lethality for 2 weeks, weight, symptoms etc. was watched to determine Minimum Lethal Dose (MLD, mg/kg). […]

| Compound | solubility at 2 min [1] | MIC50 [2] | MIC50 [3] | Minimum Lethal Dose (MLD) (ICR mice) | Solubility [1] | Solubility ([1]; trifluoroacetic acid) |
| --- | --- | --- | --- | --- | --- | --- |
| Cn1nnc(-c2ccc(-c3ccc(N4C[C@H](CO)OC4=O)cc3F)cn2)n1 [Compound 10, (R)-3-(4-(2-(2-methyltetrazol-5-yl)pyridin-5-yl)-3-fluorophenyl)-5-hydroxymethyl oxazolidin-2-one] | 10 µg/mL (≈ 27 µM) | 0.25 µg/mL (≈ 0.675 µM) | 0.5 µg/mL (≈ 1.35 µM) | >1000 mg/kg | – | – |
| Cn1nnc(-c2ccc(-c3ccc(N4C[C@H](COC(=O)CN)OC4=O)cc3F)cn2)n1 [Compound 12, (R)-3-(4-(2-(2-methyltetrazol-5-yl)pyridin-5-yl)-3-fluorophenyl)-5-glycyloxymethyl oxazolidin-2-one trifluoroacetic acid] | – | – | – | >1000 mg/kg | 28000 µg/mL (≈ 65500 µM) | – |
| Cc1nnc(-c2ccc(-c3ccc(N4C[C@H](CO)OC4=O)cc3F)cn2)o1 [Compound 16, (R)-3-(4-(2-(2-methyl-[1,3,4]oxadiazol-5-yl)pyridin-5-yl)-3-fluorophenyl)-5-hydroxymethyl oxazolidin-2-one] | 20 µg/mL (≈ 54 µM) | 1 µg/mL (≈ 2.7 µM) | 0.5 µg/mL (≈ 1.35 µM) | >1000 mg/kg | – | – |
| O=C1O[C@@H](CO)CN1c1ccc(-c2ccc(-n3cncn3)nc2)c(F)c1 [Compound 17, (R)-3-(4-(2-[1,2,4]triazol-1-ylpyridin-5-yl)-3-fluorophenyl)-5-hydroxymethyl oxazolidin-2-one] | – | 1 µg/mL (≈ 2.81 µM) | 1 µg/mL (≈ 2.81 µM) | >1000 mg/kg | – | – |
| CC(C)[C@H](N)C(=O)OC[C@H]1CN(c2ccc(-c3ccc(-c4nnn(C)n4)nc3)c(F)c2)C(=O)O1 [Compound 20, (R)-3-(4-(2-(2-methyltetrazol-5-yl)pyridin-5-yl)-3-fluorophenyl)-5-(L-valyloxy)methyl oxazolidin-2-one trifluoroacetic acid] | – | – | – | >1000 mg/kg | 4700 µg/mL (≈ 10000 µM) | – |
| NCC(=O)OC[C@H]1CN(c2ccc(-c3ccc(-n4ccnn4)nc3)c(F)c2)C(=O)O1 [Compound 22, (R)-3-(4-(2-([1,2,3]triazol-1-yl)pyridin-5-yl)-3-fluorophenyl)-5-glycyloxymethyl oxazolidin-2-one trifluoroacetic acid] | – | 1 µg/mL (≈ 2.42 µM) | 1 µg/mL (≈ 2.42 µM) | >1000 mg/kg | – | – |
| O=C1O[C@@H](CO)CN1c1ccc(-c2ccc(-n3ccnn3)nc2)c(F)c1 [Compound 24, (R)-3-(4-(2-([1,2,3]triazol-1-yl)pyridin-5-yl)-3-fluorophenyl)-5-hydroxymethyl oxazolidin-2-one] | – | 0.5 µg/mL (≈ 1.41 µM) | 0.5 µg/mL (≈ 1.41 µM) | >1000 mg/kg | – | – |
| Cc1nnc(-c2ccc(-c3ccc(N4C[C@H](COC(=O)CN)OC4=O)cc3F)cn2)o1 [Compound 27, (R)-3-(4-(2-(2-methyl-[1,3,4]oxadiazole-5-yl)pyridin-5-yl)-3-fluorophenyl)-5-glycyloxymethyl oxazolidin-2-one trifluoroacetic acid] | > 50000 µg/mL | – | – | >1000 mg/kg | – | – |
| CC(C)[C@H](N)C(=O)OC[C@H]1CN(c2ccc(-c3ccc(-c4nnn(C)n4)nc3)c(F)c2)C(=O)O1.Cl [Compound 43, (R)-3-(4-(2-(2-methyltetrazol-5-yl)pyridin-5-yl)-3-fluorophenyl)-5-(L-valyloxy)methyl oxazolidin-2-one hydrochloride] | – | 0.25 µg/mL | 0.5 µg/mL | – | 4200 µg/mL | – |
| C[C@H](N)C(=O)OC[C@H]1CN(c2ccc(-c3ccc(-c4nnn(C)n4)nc3)c(F)c2)C(=O)O1.Cl [Compound 44, (R)-3-(4-(2-(2-methyltetrazol-5-yl)pyridin-5-yl)-3-fluorophenyl)-5-(L-alanyloxy)methyl oxazolidin-2-one hydrochloride] | > 50000 µg/mL | 0.25 µg/mL | 0.5 µg/mL | – | – | – |
| Cl.Cn1nnc(-c2ccc(-c3ccc(N4C[C@H](COC(=O)CN)OC4=O)cc3F)cn2)n1 [Compound 45, (R)-3-(4-(2-(2-methyltetrazol-5-yl)pyridin-5-yl)-3-fluorophenyl)-5-glycyloxymethyl oxazolidin-2-one hydrochloride] | – | 0.25 µg/mL | 0.5 µg/mL | – | 12000 µg/mL | – |
| Cl.Cn1nnc(-c2ccc(-c3ccc(N4C[C@H](COC(=O)[C@@H]5CCCN5)OC4=O)cc3F)cn2)n1 [Compound 47, (R)-3-(4-(2-(2-methyltetrazol-5-yl)pyridin-5-yl)-3-fluorophenyl)-5-(L-prolinyloxy)methyl oxazolidin-2-one hydrochloride] | 2000 µg/mL | 0.25 µg/mL | 0.5 µg/mL | – | – | – |
| Cc1nnc(-c2ccc(-c3ccc(N4C[C@H](COC(=O)CN)OC4=O)cc3F)cn2)o1.Cl [Compound 48, (R)-3-(4-(2-(2-methyl-[1,3,4]oxadiazol-5-yl)pyridin-5-yl)-3-fluorophenyl)-5-glycyloxymethyl oxazolidin-2-one hydrochloride] | > 50000 µg/mL | 1 µg/mL | 0.5 µg/mL | – | – | – |
| Cn1nnc(-c2ccc(-c3ccc(N4C[C@H](COC(=O)CCN)OC4=O)cc3F)cn2)n1 [Compound 49, (R)-3-(4-(2-(2-methyltetrazol-5-yl)pyridin-5-yl)-3-fluorophenyl)-5-(β-alanyloxy)methyl oxazolidin-2-one trifluoroacetic acid] | – | 0.25 µg/mL (≈ 0.566 µM) | 0.5 µg/mL (≈ 1.13 µM) | – | – | 2600 µg/mL (≈ 5890 µM) |
| Cc1nnc(-c2ccc(-c3ccc(N4C[C@H](COC(=O)[C@H](C)N)OC4=O)cc3F)cn2)o1.Cl [Compound 52, (R)-3-(4-(2-(2-methyl-[1,3,4]oxadiazol-5-yl)pyridin-5-yl)-3-fluorophenyl)-5-(L-alanyloxy)methyl oxazolidin-2-one hydrochloride] | > 50000 µg/mL | 1 µg/mL | 0.5 µg/mL | – | – | – |
| Cc1nnc(-c2ccc(-c3ccc(N4C[C@H](COC(=O)[C@@H](N)C(C)C)OC4=O)cc3F)cn2)o1.Cl [Compound 54, (R)-3-(4-(2-(2-methyl-[1,3,4]oxadiazol-5-yl)pyridin-5-yl)-3-fluorophenyl)-5-(L-valyloxy)methyl oxazolidin-2-one hydrochloride] | 2900 µg/mL | 1 µg/mL | 0.5 µg/mL | – | – | – |
| Cc1nnc(-c2ccc(-c3ccc(N4C[C@H](COC(=O)[C@@H]5CCCN5)OC4=O)cc3F)cn2)o1.Cl [Compound 56, (R)-3-(4-(2-(2-methyl-[1,3,4]oxadiazol-5-yl)pyridin-5-yl)-3-fluorophenyl)-5-(L-prolinyloxy)methyl oxazolidin-2-one hydrochloride] | > 50000 µg/mL | 1 µg/mL | 0.5 µg/mL | – | – | – |
| Cc1nnc(-c2ccc(-c3ccc(N4C[C@H](COC(=O)CCN)OC4=O)cc3F)cn2)o1.Cl [Compound 58, (R)-3-(4-(2-(2-methyl-[1,3,4]oxadiazol-5-yl)pyridin-5-yl)-3-fluorophenyl)-5-(β-alanyloxy)methyl oxazolidin-2-one hydrochloride] | 5500 µg/mL | 1 µg/mL | 0.5 µg/mL | – | – | – |
| Cn1nnc(-c2ccc(-c3ccc(N4C[C@H](COP(=O)([O][Na+])[O][Na+])OC4=O)cc3F)cn2)n1 [Compound 59, (R)-[3-(4-(2-(2-methyltetrazol-5-yl)pyridin-5-yl)-3-fluorophenyl)-2-oxo-5-oxazolidinyl]methyl disodiumphosphate] | > 50000 µg/mL | 0.25 µg/mL | 0.5 µg/mL | – | – | – |
| Cc1nnc(-c2ccc(-c3ccc(N4C[C@H](COP(=O)([O][Na+])[O][Na+])OC4=O)cc3F)cn2)o1 [Compound 60, (R)-[3-(4-(2-(2-methyl-[1,3,4]oxadiazol-5-yl)pyridin-5-yl)-3-fluorophenyl)-2-oxo-5-oxazolidinyl]methyl disodiumphosphate] | > 50000 µg/mL | 1 µg/mL | 0.5 µg/mL | – | – | – |
| Cn1nnnc1-c1ccc(-c2ccc(N3C[C@H](COC(=O)CCN)OC3=O)cc2F)cn1 [Compound 68, (R)-3-(4-(2-(1-methyltetrazol-5-yl)pyridin-5-yl)-3-fluorophenyl)-5-(β-alanyloxy)methyl oxazolidin-2-one trifluoroacetic acid] | 2600 µg/mL (≈ 5890 µM) | – | – | – | – | – |
| Cn1nnnc1-c1ccc(-c2ccc(N3C[C@H](COP(=O)([O-])[O-])OC3=O)cc2F)cn1.[Na+].[Na+] [Compound 70, (R)-[3-(4-(2-(1-methyltetrazol-5-yl)pyridin-5-yl)-3-fluorophenyl)-2-oxo-5-oxazolidinyl]methyl disodiumphosphate] | > 50000 µg/mL | 0.25 µg/mL | 0.5 µg/mL | – | – | – |
